According to patent publication US8569344B2, “N-piperidinyl acetamide derivatives as calcium channel blockers” (Zalicus Pharmaceuticals Ltd., priority 2008, dated 2013):

Key:
[1] = target: T1, human α1G T-type channels (Homo sapiens, UniProt O43497); test: T-type calcium channel block, whole cell patch clamp in HEK cells (α1G); format: cell-based; conditions: HEK cells, patch clamp, mainly non-inactivated protocol; values above 10 μM shown as 10 μM, below 0.30 μM shown as 0.30 μM; read-out: T-type Calcium Channel Block α1G IC50
T1 construct: expressed in transfected cells; host or cells: HEK 293

[2] = target: T2, human α1H T-type channels (Homo sapiens, UniProt O95180); test: T-type calcium channel block, whole cell patch clamp in HEK cells (α1H); format: cell-based; conditions: HEK cells, patch clamp, mainly non-inactivated protocol; values above 10 μM shown as 10 μM; read-out: T-type Calcium Channel Block α1H IC50
T2 construct: expressed in transfected cells; host or cells: HEK 293
T2 sequence (O95180 whole entry): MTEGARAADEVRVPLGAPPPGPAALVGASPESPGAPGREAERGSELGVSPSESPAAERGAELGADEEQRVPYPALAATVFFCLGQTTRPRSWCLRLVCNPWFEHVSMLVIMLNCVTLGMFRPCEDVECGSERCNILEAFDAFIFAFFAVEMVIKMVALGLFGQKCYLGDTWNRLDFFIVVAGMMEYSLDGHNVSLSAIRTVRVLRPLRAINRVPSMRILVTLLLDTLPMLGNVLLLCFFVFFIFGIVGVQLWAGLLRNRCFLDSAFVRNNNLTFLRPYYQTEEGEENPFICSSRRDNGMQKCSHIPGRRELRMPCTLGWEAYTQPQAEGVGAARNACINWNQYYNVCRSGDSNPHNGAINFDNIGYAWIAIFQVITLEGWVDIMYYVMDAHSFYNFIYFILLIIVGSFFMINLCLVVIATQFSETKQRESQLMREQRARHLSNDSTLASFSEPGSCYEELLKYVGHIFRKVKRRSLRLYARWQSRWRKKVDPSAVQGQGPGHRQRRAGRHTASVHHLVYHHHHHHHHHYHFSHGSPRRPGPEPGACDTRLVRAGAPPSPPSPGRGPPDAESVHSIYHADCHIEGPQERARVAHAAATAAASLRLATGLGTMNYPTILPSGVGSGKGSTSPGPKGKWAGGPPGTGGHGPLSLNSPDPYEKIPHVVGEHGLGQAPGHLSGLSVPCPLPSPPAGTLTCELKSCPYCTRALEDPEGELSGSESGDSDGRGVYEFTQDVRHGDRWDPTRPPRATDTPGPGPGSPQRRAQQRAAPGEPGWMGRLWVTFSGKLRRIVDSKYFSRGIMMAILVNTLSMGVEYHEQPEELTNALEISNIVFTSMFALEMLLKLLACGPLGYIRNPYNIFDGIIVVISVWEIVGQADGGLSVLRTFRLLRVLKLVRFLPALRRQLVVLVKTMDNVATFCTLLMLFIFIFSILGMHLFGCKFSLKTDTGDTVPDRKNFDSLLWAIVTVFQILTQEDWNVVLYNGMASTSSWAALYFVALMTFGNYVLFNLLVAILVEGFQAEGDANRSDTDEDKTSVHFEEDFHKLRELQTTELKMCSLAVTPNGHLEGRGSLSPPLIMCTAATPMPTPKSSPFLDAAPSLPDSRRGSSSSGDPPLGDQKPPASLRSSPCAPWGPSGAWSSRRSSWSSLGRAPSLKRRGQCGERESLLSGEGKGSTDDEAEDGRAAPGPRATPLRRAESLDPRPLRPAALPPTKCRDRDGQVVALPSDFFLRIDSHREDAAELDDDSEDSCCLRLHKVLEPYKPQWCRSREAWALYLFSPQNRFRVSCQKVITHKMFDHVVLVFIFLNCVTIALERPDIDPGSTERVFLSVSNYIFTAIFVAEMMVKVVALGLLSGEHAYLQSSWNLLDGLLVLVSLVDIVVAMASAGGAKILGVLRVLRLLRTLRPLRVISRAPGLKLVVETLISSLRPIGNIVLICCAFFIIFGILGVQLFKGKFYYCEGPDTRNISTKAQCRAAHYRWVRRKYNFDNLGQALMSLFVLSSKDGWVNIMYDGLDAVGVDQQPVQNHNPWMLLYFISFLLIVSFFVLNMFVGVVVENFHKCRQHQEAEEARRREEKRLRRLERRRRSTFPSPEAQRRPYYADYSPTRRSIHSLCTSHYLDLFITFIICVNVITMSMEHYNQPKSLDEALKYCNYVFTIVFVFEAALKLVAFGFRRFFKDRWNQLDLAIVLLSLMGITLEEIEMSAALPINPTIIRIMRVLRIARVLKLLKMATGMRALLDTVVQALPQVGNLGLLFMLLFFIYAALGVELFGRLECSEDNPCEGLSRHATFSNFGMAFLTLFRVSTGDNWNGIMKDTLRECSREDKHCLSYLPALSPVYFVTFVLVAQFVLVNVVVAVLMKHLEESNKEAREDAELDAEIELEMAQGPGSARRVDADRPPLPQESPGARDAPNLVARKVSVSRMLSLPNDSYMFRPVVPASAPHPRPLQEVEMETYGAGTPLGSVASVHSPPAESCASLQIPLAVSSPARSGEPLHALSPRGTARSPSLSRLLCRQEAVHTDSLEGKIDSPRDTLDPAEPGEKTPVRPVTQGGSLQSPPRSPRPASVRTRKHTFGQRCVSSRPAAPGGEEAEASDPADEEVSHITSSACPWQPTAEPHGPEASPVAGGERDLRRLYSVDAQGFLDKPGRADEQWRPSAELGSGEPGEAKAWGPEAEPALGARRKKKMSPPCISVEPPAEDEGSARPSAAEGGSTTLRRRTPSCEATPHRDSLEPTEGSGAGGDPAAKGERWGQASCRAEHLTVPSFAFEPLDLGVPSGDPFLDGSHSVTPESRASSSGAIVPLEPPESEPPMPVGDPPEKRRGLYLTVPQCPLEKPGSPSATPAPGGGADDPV

T1 sequence (O43497 whole entry): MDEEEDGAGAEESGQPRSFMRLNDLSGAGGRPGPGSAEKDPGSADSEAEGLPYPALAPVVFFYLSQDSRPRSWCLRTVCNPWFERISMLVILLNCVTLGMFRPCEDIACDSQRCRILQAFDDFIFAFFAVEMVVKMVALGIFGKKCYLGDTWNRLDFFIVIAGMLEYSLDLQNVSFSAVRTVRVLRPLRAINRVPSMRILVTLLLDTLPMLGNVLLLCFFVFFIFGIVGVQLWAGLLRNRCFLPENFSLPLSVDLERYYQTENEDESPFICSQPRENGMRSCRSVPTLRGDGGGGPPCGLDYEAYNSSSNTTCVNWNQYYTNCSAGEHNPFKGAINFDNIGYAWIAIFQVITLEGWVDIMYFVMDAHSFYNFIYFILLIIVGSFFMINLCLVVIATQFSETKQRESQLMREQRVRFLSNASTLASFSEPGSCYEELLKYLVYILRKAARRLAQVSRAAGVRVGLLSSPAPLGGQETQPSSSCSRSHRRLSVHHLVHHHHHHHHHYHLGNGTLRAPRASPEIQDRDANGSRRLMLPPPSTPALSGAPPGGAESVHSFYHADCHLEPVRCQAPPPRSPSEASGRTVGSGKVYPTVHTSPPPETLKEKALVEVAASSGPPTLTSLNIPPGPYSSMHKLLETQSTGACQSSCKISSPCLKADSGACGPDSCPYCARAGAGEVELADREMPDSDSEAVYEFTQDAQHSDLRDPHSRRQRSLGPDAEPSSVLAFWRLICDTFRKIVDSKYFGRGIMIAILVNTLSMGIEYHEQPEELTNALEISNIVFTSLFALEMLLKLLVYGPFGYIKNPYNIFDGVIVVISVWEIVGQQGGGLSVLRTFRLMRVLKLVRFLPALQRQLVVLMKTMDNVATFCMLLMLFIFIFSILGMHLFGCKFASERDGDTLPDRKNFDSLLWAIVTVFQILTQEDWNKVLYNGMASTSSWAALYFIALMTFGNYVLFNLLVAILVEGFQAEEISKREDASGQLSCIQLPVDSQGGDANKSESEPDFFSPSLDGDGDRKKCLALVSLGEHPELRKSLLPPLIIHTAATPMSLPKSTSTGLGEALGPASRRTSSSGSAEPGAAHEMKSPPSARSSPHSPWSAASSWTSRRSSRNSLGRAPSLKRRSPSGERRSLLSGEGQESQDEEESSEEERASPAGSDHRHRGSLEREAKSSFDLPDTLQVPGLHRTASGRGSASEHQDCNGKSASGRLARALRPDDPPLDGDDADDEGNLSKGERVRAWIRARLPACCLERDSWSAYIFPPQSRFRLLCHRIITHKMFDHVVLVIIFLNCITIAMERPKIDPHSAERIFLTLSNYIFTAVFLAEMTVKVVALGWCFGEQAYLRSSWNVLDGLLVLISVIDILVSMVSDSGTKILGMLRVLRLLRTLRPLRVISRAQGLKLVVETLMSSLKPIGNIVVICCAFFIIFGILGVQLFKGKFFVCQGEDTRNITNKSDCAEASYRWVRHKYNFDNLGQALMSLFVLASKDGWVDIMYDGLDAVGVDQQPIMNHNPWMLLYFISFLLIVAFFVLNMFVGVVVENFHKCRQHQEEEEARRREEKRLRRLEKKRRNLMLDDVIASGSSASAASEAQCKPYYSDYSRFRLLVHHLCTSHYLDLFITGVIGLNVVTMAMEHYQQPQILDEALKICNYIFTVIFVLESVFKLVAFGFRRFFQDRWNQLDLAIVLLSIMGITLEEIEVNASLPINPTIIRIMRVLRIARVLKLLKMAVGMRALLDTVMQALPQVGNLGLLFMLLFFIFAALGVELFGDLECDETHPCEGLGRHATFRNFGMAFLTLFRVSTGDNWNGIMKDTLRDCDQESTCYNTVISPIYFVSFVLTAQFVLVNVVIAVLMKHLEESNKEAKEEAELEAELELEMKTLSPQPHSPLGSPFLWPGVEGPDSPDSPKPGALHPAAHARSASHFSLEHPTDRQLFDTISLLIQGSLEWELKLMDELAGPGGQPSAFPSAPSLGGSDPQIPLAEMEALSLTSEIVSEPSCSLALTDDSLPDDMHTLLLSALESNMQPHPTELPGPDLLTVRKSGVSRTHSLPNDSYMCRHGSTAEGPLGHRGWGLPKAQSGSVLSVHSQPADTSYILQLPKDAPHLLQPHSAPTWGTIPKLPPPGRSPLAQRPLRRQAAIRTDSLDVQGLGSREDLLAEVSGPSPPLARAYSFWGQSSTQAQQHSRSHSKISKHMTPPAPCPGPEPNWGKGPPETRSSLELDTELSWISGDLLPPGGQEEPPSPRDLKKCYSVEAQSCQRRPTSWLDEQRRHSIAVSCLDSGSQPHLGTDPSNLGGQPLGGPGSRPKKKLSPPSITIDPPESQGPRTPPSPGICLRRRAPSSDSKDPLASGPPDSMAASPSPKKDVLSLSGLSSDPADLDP

SMILES | IC50 [1] [nM] | IC50 [2] [nM]
CC(C)(F)CNC(=O)CN1CCC(CNC(=O)c2cc(C(F)(F)F)cc(C(F)(F)F)c2)CC1 [Compound 555, N-((1-(2-(2-fluoro-2-methylpropyl-amino)-2-oxoethyl)piperidin-4-yl)methyl)-3,5-bis(trifluoromethyl) benzamide] | 530 | 890
O=C(NCC1CCN(CCNS(=O)(=O)C2CC2)CC1)c1cccc(C(F)(F)F)c1 [Compound 228, N-((1-(2-(cyclopropanesulfonamido)ethyl)piperidin-4-yl)methyl)-3-(trifluoromethyl)benzamide] | 1670 | 2350
CCCNC(=O)CN1CCC(CNC(=O)c2cccc(Br)c2)CC1 [Compound 450, 3-bromo-N-((1-(2-oxo-2-(propylamino)ethyl)piperidin-4-yl)methyl)benzamide] | 8880 | > 10000
COc1cc(F)cc(C(=O)NCC2CCN(CC(=O)NC3(C4CCOCC4)CC3)CC2)c1 [Compound 562, 3-fluoro-5-methoxy-N-((1-(2-oxo-2-(1-(tetrahydro-2H-pyran-4-yl)cyclopropylamino)ethyl)piperidin-4-yl)methyl)benzamide] | 400 | 660
NC1(C(=O)NCCN2CCC(CNC(=O)c3cc(F)cc(C(F)(F)F)c3)CC2)CCCCC1 [Compound 570, N-((1-(2-(1-aminocyclohexanecarboxamido)ethyl)piperidin-4-yl)methyl)-3-fluoro-5-(trifluoromethyl)benzamide] | 2060 | 2360
CC(C)(C)NC(=O)NC1(CN2CCC(CNC(=O)c3cc(C(F)(F)F)cc(C(F)(F)F)c3)CC2)CCCC1 [Compound 12, N-((1-((1-(3-tert-butylureido)cyclopentyl)methyl)piperidin-4-yl)methyl)-3,5-bis(trifluoromethyl)benzamide] | 480 | 1660
C[C@@H]1CCCCN1CC(=O)N1CCC(CNC(=O)c2cc(C(F)(F)F)cc(C(F)(F)F)c2)CC1 [Compound 252, (R)-N-((1-(2-(2-methylpiperidin-1-yl)acetyl)piperidin-4-yl)methyl)-3,5-bis(trifluoromethyl)benzamide] | 2430 | 2340
CC1CCCCC1NCC(=O)N1CCC(CNC(=O)c2cc(F)cc(C(F)(F)F)c2)CC1 (stereo not shown) [Compound 274, 3-fluoro-N-((1-(2-(2-methylcyclohexylamino)acetyl)piperidin-4-yl)methyl)-5-(trifluoromethyl)benzamide] | < 300 | 660
Cc1cc(C)cc(C(=O)NCC2CCN(CC(=O)N3CCC[C@H]3C(F)(F)F)CC2)c1 [Compound 463, (S)-3,5-dimethyl-N-((1-(2-oxo-2-(2-(trifluoromethyl)pyrrolidin-1-yl)ethyl)piperidin-4-yl)methyl) benzamide] | < 300 | 210
O=C(NCC1CCN(CCNC(=O)C2(C(F)(F)F)CC2)CC1)c1cccc(Cl)c1 [Compound 502, 3-chloro-N-((1-(2-(1-(trifluoromethyl)cyclopropanecarbox-amido)ethyl)piperidin-4-yl)methyl) benzamide] | 590 | 230
CC(C)(C)C(=O)NCCN1CCC(CNC(=O)c2cccc(OC(F)(F)F)c2)CC1 [Compound 292, N-((1-(2-pivalamidoethyl)piperidin-4-yl)methyl)-3-(trifluoromethoxy)benzamide] | 360 | 740
COc1cc(F)cc(C(=O)NCC2CCN(CCNS(=O)(=O)C(F)(F)F)CC2)c1 [Compound 325, 3-fluoro-5-methoy-N-((1-(2-(trifluoromethylsulfonamido)ethyl)piperidin-4-yl)methyl)benzamide] | 6580 | 3390
O=C(NCC1CCN(CC(=O)N2CCC(F)CC2)CC1)c1cc(F)cc(C(F)(F)F)c1 [Compound 356, 3-fluoro-N-((1-(2-(4-fluoropiperidin-1-yl)-2-oxoethyl)piperidin-4-yl)methyl)-5-(trifluoromethyl)benzamide] | 550 | 830
CCCCCNCC(=O)N1CCC(CNC(=O)c2cc(C(F)(F)F)cc(C(F)(F)F)c2)CC1 [Compound 241, N-((1-(2-(pentylamino)acetyl)piperidin-4-yl)methyl)-3,5-bis(trifluoromethyl)benzamide] | < 300 | 520
COc1cc(OC)cc(C(=O)NCC2CCN(CC(=O)NC(C)C)CC2)c1 [Compound 439, N-((1-(2-(isopropylamino)-2-oxoethyl)piperidin-4-yl)methyl)-3,5-dimethoxybenzamide] | 3280 | 2170
O=C(NCC1CCN(CCNS(=O)(=O)C(F)(F)F)CC1)c1ccc(OC(F)(F)F)cc1 [Compound 389, 4-(trifluoromethoxy)-N-((1-(2-(trifluoromethylsulfonamido)ethyl)piperidin-4-yl)methyl)benzamide] | > 10000 | > 10000

SMILES | IC50 [1] [nM] | IC50 [2] [nM]
CCCNC(=O)CN1CCC(CNC(=O)c2cccc(C(F)(F)F)c2)CC1 [Compound 449, N-((1-(2-oxo-2-(propylamino)ethyl)piperidin-4-yl)methyl)-3-(trifluoromethyl)benzamide] | > 10000 | > 10000
CCCNC(=O)CN1CCC(CNC(=O)c2cc(C(F)(F)F)cc(C(F)(F)F)c2)CC1 [Compound 345, N-((1-(2-oxo-2-(propylamino)ethyl)piperidin-4-yl)methyl)-3,5-bis(trifluoromethyl)benzamide] | < 300 | 110
O=C(NCC1CCN(CCNS(=O)(=O)C(F)(F)F)CC1)c1ccc(C(F)(F)F)c(F)c1 [Compound 328, 3-fluoro-4-(trifluoromethyl)-N-((1-(2-(trifluoromethylsulfonamido)ethyl)piperidin-4-yl)methyl)benzamide] | 1030 | 1550
CCCNC(=O)CN1CCC(CNC(=O)c2cccc(Cl)c2)CC1 [Compound 451, 3-chloro-N-((1-(2-oxo-2-(propylamino)ethyl)piperidin-4-yl)methyl)benzamide] | > 10000 | > 10000
O=C(NCC1CCN(CCNS(=O)(=O)C(F)(F)F)CC1)c1cc(C(F)(F)F)cc(C(F)(F)F)c1 [Compound 21, 3,5-bis(trifluoromethyl)-N-((1-(2-(trifluoromethylsulfonamido)ethyl)piperidin-4-yl)methyl)benzamide] | 3660 | 590
CC1(NC(=O)CN2CCC(CNC(=O)c3cc(F)cc(C(F)(F)F)c3)CC2)CCC1 [Compound 352, 3-fluoro-N-((1-(2-(1-methylcyclo-butylamino)-2-oxoethyl)piperidin-4-yl)methyl)-5-(trifluoromethyl) benzamide] | < 300 | 80
CCOc1cc(OCC)cc(C(=O)NCC2CCN(CC(=O)NC(C)(C)C)CC2)c1 [Compound 377, N-((1-(2-(tert-butylamino)-2-oxoethyl)piperidin-4-yl)methyl)-3,5-diethoxybenzamide] | < 300 | 450
COc1cc(C(=O)NCC2CCN(CCNC(=O)C(C)(C)C)CC2)cc(C(F)(F)F)c1 [Compound 303, 3-methoxy-N-((1-(2-pivalamidoethyl)piperidin-4-yl)methyl)-5-(trifluoromethyl)benzamide] | < 300 | 600
CC1(NC(=O)CN2CCC(CNC(=O)c3cccc(Br)c3)CC2)CCC1 [Compound 480, 3-bromo-N-((1-(2-(1-methylcyclobutylamino)-2-oxoethyl)piperidin-4-yl)methyl) benzamide] | < 300 | 180
CC(C)(C)C(=O)NCCN1CCC(CNC(=O)c2cc(F)cc(C(F)(F)F)c2)CC1 [Compound 294, 3-fluoro-N-((1-(2-pivalamidoethyl)piperidin-4-yl)methyl)-5-(trifluoromethyl)benzamide] | 570 | 810
COCC(C)(C)NC(=O)C(C)N1CCC(CNC(=O)c2cc(F)cc(Cl)c2)CC1 (stereo not shown) [Compound 551, 3-chloro-5-fluoro-N-((1-(1-(1-methoxy-2-methylpropan-2-ylamino)-1-oxopropan-2-yl)piperidin-4-yl)methyl)benzamide] | 370 | 140
Cc1cc(F)cc(C(=O)NCC2CCN(CC(=O)N3CCC[C@@H]3C(F)(F)F)CC2)c1 [Compound 506, (R)-3-fluoro-5-methyl-N-((1-(2-oxo-2-(2-(trifluoromethyl)pyrrolidin-1-yl)ethyl)piperidin-4-yl)methyl) benzamide] | 5360 | 1480
CN(CCN1CCC(CNC(=O)c2cc(F)cc(C(F)(F)F)c2)CC1)C(=O)C1CCCC1 [Compound 516, 3-fluoro-N-((1-(2-(N-methylcyclopentanecarboxamido)ethyl)piperidin-4-yl)methyl)-5-(trifluoromethyl)benzamide] | 460 | 220
CC(C)(C)NC(=O)CN1CCC(CNC(=O)c2cc(C(F)(F)F)ccn2)CC1 [Compound 372, N-((1-(2-(tert-butylamino)-2-oxoethyl)piperidin-4-yl)methyl)-4-(trifluoromethyl)picolinamide] | > 10000 | > 10000
O=C(NCC1CCN(CC(=O)N2CCC[C@@H]2C(F)(F)F)CC1)c1cc(F)cc(Cl)c1 [Compound 504, (R)-3-chloro-5-fluoro-N-((1-(2-oxo-2-(2-(trifluoromethyl)pyrrolidin-1-yl)ethyl)piperidin-4-yl)methyl) benzamide] | 420 | 420
COc1cc(OC)cc(C(=O)NCC2CCN(CC(=O)N3CCC[C@H]3C(F)(F)F)CC2)c1 [Compound 466, (S)-3,5-dimethoxy-N-((1-(2-oxo-2-(2-(trifluoromethyl)pyrrolidin-1-yl)ethyl)piperidin-4-yl)methyl)benzamide] | < 300 | 270
